What follows are compounds tested against SMYD2 (Homo sapiens (Human), UniProt Q9NRG4) (assay: SMYD2 biochemical assay (SMYD2 enzyme assay on peptide substrate, 3H-SAM Flashplate)). Settings: read-out: SMYD2 Biochem IC50; IC50 values are an average of n = 1 to n = 50.
SMYD2, sequence (Q9NRG4 whole entry): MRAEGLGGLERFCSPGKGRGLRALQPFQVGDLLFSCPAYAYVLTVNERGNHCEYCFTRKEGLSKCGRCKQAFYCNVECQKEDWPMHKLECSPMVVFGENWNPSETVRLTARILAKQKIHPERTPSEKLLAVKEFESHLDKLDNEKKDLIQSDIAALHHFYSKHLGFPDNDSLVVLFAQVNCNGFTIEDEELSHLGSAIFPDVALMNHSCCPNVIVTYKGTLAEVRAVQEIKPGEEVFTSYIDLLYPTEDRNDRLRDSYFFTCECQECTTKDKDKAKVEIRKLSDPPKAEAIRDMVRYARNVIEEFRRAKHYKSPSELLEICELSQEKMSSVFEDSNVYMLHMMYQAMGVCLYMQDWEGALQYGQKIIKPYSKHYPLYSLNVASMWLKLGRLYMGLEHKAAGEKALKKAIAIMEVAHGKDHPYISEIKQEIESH
For `CC(c1ccc(F)cc1Cl)N1CC(NC(=O)c2cn(C3CC3)nn2)C1` (centres unmarked) [compound 710, N-{1-[1-(2-chloro-4-fluorophenyl)ethyl]azetidin-3-yl}-1-cyclopropyl-1H-1,2,3-triazole-4-carboxamide], the IC50 was 341 nM.
In the case of `CCC(c1cccc(F)c1)N1CC(NC(=O)c2cn(C3CC3)nn2)C1` (centres unmarked) [compound 711, 1-cyclopropyl-N-{1-[1-(3-fluorophenyl)propyl]azetidin-3-yl}-1H-1,2,3-triazole-4-carboxamide], the IC50 is reported as 1010 nM.
`COc1ccc2c(c1Cl)CCC2N1CC(NC(=O)c2cn(C3CC3)nn2)C1` (centres unmarked) [compound 713, N-[1-(4-chloro-5-methoxy-2,3-dihydro-1H-inden-1-yl)azetidin-3-yl]-1-cyclopropyl-1H-1,2,3-triazole-4-carboxamide] showed an IC50 of 12900 nM.
In the case of `CC(c1cc(F)cc(Cl)c1)N1CC(NC(=O)c2cn(C3CC3)nn2)C1` (centres unmarked) [compound 714, N-{1-[1-(3-chloro-5-fluorophenyl)ethyl]azetidin-3-yl}-1-cyclopropyl-1H-1,2,3-triazole-4-carboxamide], the IC50 is reported as 2130 nM.
With `CC(c1ncccn1)N1CC(NC(=O)c2cn(C3CC3)nn2)C1` (centres unmarked) [compound 715, 1-cyclopropyl-N-{1-[1-(pyrimidin-2-yl)ethyl]azetidin-3-yl}-1H-1,2,3-triazole-4-carboxamide] the IC50 was 1940 nM.
`CC(c1nccs1)N1CC(NC(=O)c2cn(C3CC3)nn2)C1` (centres unmarked) [compound 716, 1-cyclopropyl-N-{1-[1-(1,3-thiazol-2-yl)ethyl]azetidin-3-yl}-1H-1,2,3-triazole-4-carboxamide] was tested, and the IC50 was 30700 nM.
With `COCCn1cc(CN2CC(NC(=O)c3cn(C4CC4)nn3)C2)cn1` [compound 717, 1-cyclopropyl-N-(1-{[1-(2-methoxyethyl)-1H-pyrazol-4-yl]methyl}azetidin-3-yl)-1H-1,2,3-triazole-4-carboxamide] the IC50 was 3060 nM.
With `Cc1nc(C)c(C(C)N2CC(NC(=O)c3cn(C4CC4)nn3)C2)s1` (centres unmarked) [compound 718, 1-cyclopropyl-N-{1-[1-(dimethyl-1,3-thiazol-5-yl)ethyl]azetidin-3-yl}-1H-1,2,3-triazole-4-carboxamide] the IC50 was 2950 nM.
In the case of `O=C(NC1CN(C2CCc3cc(Cl)ccc32)C1)c1cn(C2CC2)nn1` (centres unmarked) [compound 719, N-[1-(5-chloro-2,3-dihydro-1H-inden-1-yl)azetidin-3-yl]-1-cyclopropyl-1H-1,2,3-triazole-4-carboxamide], the IC50 is reported as 4410 nM.
In the case of `C[C@H](c1ccccc1)N1CC(NC(=O)c2cn(C3CC3)nn2)C1` [compound 720, 1-cyclopropyl-N-{1-[(1R)-1-phenylethyl]azetidin-3-yl}-1H-1,2,3-triazole-4-carboxamide], the IC50 is reported as 23300 nM.
With `CC(C)N1CC(NC(=O)c2cn(CCN)nn2)C1` [compound 723, 1-(2-aminoethyl)-N-[1-(propan-2-yl)azetidin-3-yl]-1H-1,2,3-triazole-4-carboxamide] the IC50 was > 50000 nM.
Work on `COc1ccnc(C(C)N2CC(NC(=O)c3cn(C4CC4)nn3)C2)c1` (centres unmarked) [compound 724, 1-cyclopropyl-N-{1-[1-(4-methoxypyridin-2-yl)ethyl]azetidin-3-yl}-1H-1,2,3-triazole-4-carboxamide] yielded an IC50 of 1270 nM.
Work on `COc1cccnc1C(C)N1CC(NC(=O)c2cn(C3CC3)nn2)C1` (centres unmarked) [compound 725, 1-cyclopropyl-N-{1-[1-(3-methoxypyridin-2-yl)ethyl]azetidin-3-yl}-1H-1,2,3-triazole-4-carboxamide] yielded an IC50 of 1020 nM.
For `CNC(=O)c1cccc(CN2CC(NC(=O)c3cn(C4CC4)nn3)C2)c1` [compound 726, 1-cyclopropyl-N-(1-{[3-(methylcarbamoyl)phenyl]methyl}azetidin-3-yl)-1H-1,2,3-triazole-4-carboxamide], the IC50 was 10700 nM.
Work on `NC(=O)c1cccc(CN2CC(NC(=O)c3cn(C4CC4)nn3)C2)c1` [compound 727, N-{1-[(3-carbamoylphenyl)methyl]azetidin-3-yl}-1-cyclopropyl-1H-1,2,3-triazole-4-carboxamide] yielded an IC50 of 7300 nM.
Compound `CC(c1ccc(N2CCOCC2)cc1)N1CC(NC(=O)c2cn(C3CC3)nn2)C1` (centres unmarked) [compound 728, 1-cyclopropyl-N-(1-{1-[4-(morpholin-4-yl)phenyl]ethyl}azetidin-3-yl)-1H-1,2,3-triazole-4-carboxamide] has an IC50 of 755 nM.
For `COc1cccc(C(N2CC(NC(=O)c3cn(C4CC4)nn3)C2)C(F)(F)F)c1` (centres unmarked) [compound 729, 1-cyclopropyl-N-{1-[2,2,2-trifluoro-1-(3-methoxyphenyl)ethyl]azetidin-3-yl}-1H-1,2,3-triazole-4-carboxamide], the IC50 was > 50000 nM.
Work on `CC(c1cccc(Oc2ccccc2)c1)N1CC(NC(=O)c2cn(C3CC3)nn2)C1` (centres unmarked) [compound 730, 1-cyclopropyl-N-{1-[1-(3-phenoxyphenyl)ethyl]azetidin-3-yl}-1H-1,2,3-triazole-4-carboxamide] yielded an IC50 of 3040 nM.
Work on `O=C(NC1CN(C(c2ccccc2)C2CCC2)C1)c1cn(C2CC2)nn1` (centres unmarked) [compound 731, N-{1-[cyclobutyl(phenyl)methyl]azetidin-3-yl}-1-cyclopropyl-1H-1,2,3-triazole-4-carboxamide] yielded an IC50 of 1520 nM.
Compound `COc1cc(C(C)N2CC(NC(=O)c3cn(C4CC4)nn3)C2)ccc1F` (centres unmarked) [compound 732, 1-cyclopropyl-N-{1-[1-(4-fluoro-3-methoxyphenyl)ethyl]azetidin-3-yl}-1H-1,2,3-triazole-4-carboxamide] has an IC50 of 2590 nM.
Work on `Cn1cnc(CN2CC(NC(=O)c3cn(C4CC4)nn3)C2)c1` [compound 733, 1-cyclopropyl-N-{1-[(1-methyl-1H-imidazol-4-yl)methyl]azetidin-3-yl}-1H-1,2,3-triazole-4-carboxamide] yielded an IC50 of 6800 nM.
`O=C(NC1CN(Cc2cccc(OCCO)c2)C1)c1cn(C2CC2)nn1` [compound 734, 1-cyclopropyl-N-(1-{[3-(2-hydroxyethoxy)phenyl]methyl}azetidin-3-yl)-1H-1,2,3-triazole-4-carboxamide] showed an IC50 of 2310 nM.
With `CNCCOc1cccc(CN2CC(NC(=O)c3cn(C4CC4)nn3)C2)c1` [compound 735, 1-cyclopropyl-N-[1-({3-[2-(methylamino)ethoxy]phenyl}methyl)azetidin-3-yl]-1H-1,2,3-triazole-4-carboxamide] the IC50 was 2330 nM.
In the case of `CC(c1cccc(OCc2ccccc2)c1)N1CC(NC(=O)c2cn(C3CC3)nn2)C1` (centres unmarked) [compound 737, N-(1-{1-[3-(benzyloxy)phenyl]ethyl}azetidin-3-yl)-1-cyclopropyl-1H-1,2,3-triazole-4-carboxamide], the IC50 is reported as 718 nM.
`CC(c1ccc(Oc2ccccc2)cc1)N1CC(NC(=O)c2cn(C3CC3)nn2)C1` (centres unmarked) [compound 739, 1-cyclopropyl-N-{1-[1-(4-phenoxyphenyl)ethyl]azetidin-3-yl}-1H-1,2,3-triazole-4-carboxamide] gave an IC50 of 1070 nM.
In the case of `O=C(NC1CN(C2CCc3cc(F)ccc32)C1)c1cn(C2CC2)nn1` (centres unmarked) [compound 740, 1-cyclopropyl-N-[1-(5-fluoro-2,3-dihydro-1H-inden-1-yl)azetidin-3-yl]-1H-1,2,3-triazole-4-carboxamide], the IC50 is reported as 6960 nM.
`CC(c1ccccc1C(F)(F)F)N1CC(NC(=O)c2cn(C3CC3)nn2)C1` (centres unmarked) [compound 741, 1-cyclopropyl-N-(1-{1-[2-(trifluoromethyl)phenyl]ethyl}azetidin-3-yl)-1H-1,2,3-triazole-4-carboxamide] was tested, and the IC50 was 1010 nM.
With `CC(c1c(F)cccc1F)N1CC(NC(=O)c2cn(C3CC3)nn2)C1` (centres unmarked) [compound 742, 1-cyclopropyl-N-{1-[1-(2,6-difluorophenyl)ethyl]azetidin-3-yl}-1H-1,2,3-triazole-4-carboxamide] the IC50 was 2850 nM.
Work on `CC(c1cccc(Cl)c1Cl)N1CC(NC(=O)c2cn(C3CC3)nn2)C1` (centres unmarked) [compound 743, 1-cyclopropyl-N-{1-[1-(2,3-dichlorophenyl)ethyl]azetidin-3-yl}-1H-1,2,3-triazole-4-carboxamide] yielded an IC50 of 488 nM.
With `CC(c1cnccn1)N1CC(NC(=O)c2cn(C3CC3)nn2)C1` (centres unmarked) [compound 745, 1-cyclopropyl-N-{1-[1-(pyrazin-2-yl)ethyl]azetidin-3-yl}-1H-1,2,3-triazole-4-carboxamide] the IC50 was 7440 nM.
In the case of `CC(c1cc(F)ccc1F)N1CC(NC(=O)c2cn(C3CC3)nn2)C1` (centres unmarked) [compound 746, 1-cyclopropyl-N-{1-[1-(2,5-difluorophenyl)ethyl]azetidin-3-yl}-1H-1,2,3-triazole-4-carboxamide], the IC50 is reported as 7780 nM.
With `CC(c1ccc(F)cc1)N1CC(NC(=O)c2cn(C3CC3)nn2)C1` (centres unmarked) [compound 747, 1-cyclopropyl-N-{1-[1-(4-fluorophenyl)ethyl]azetidin-3-yl}-1H-1,2,3-triazole-4-carboxamide] the IC50 was 1920 nM.
`COc1ccc(C(N2CC(NC(=O)c3cn(C4CC4)nn3)C2)C(F)(F)F)cc1` (centres unmarked) [compound 749, 1-cyclopropyl-N-{1-[2,2,2-trifluoro-1-(4-methoxyphenyl)ethyl]azetidin-3-yl}-1H-1,2,3-triazole-4-carboxamide] was tested, and the IC50 was 565 nM.
With `COc1cccc(O)c1C(C)N1CC(NC(=O)c2cn(C3CC3)nn2)C1` (centres unmarked) [compound 750, 1-cyclopropyl-N-{1-[1-(2-hydroxy-6-methoxyphenyl)ethyl]azetidin-3-yl}-1H-1,2,3-triazole-4-carboxamide] the IC50 was 1280 nM.
`NCc1cccc(CN2CC(NC(=O)c3cn(C4CC4)nn3)C2)c1` [compound 754, N-(1-{[3-(aminomethyl)phenyl]methyl}azetidin-3-yl)-1-cyclopropyl-1H-1,2,3-triazole-4-carboxamide] showed an IC50 of 7340 nM.
`O=C(NC1CN(C2(c3ccccc3)CC2)C1)c1cn(C2CC2)nn1` [compound 755, 1-cyclopropyl-N-[1-(1-phenylcyclopropyl)azetidin-3-yl]-1H-1,2,3-triazole-4-carboxamide] was tested, and the IC50 was 30500 nM.
`CNCCN1CCC(CN2CC(NC(=O)c3cn(C4CC4)nn3)C2)C1=O` (centres unmarked) [compound 756, 1-cyclopropyl-N-[1-({1-[2-(methylamino)ethyl]-2-oxopyrrolidin-3-yl}methyl)azetidin-3-yl]-1H-1,2,3-triazole-4-carboxamide] showed an IC50 of 17000 nM.
For `CNC1CCOC(CN2CC(NC(=O)c3cn(C4CC4)nn3)C2)C1` (centres unmarked) [compound 758, 1-cyclopropyl-N-(1-{[4-(methylamino)oxan-2-yl]methyl}azetidin-3-yl)-1H-1,2,3-triazole-4-carboxamide], the IC50 was > 50000 nM.

— patent publication US10266526B2, “Substituted 1,2,3-triazoles as SMYD inhibitors for treating cancer” (EPIZYME, INC., priority 2014, dated 2019)
